From patent publication US6693217B2, “Antimalarial N,N′-substituted biguanides derived from hydroxylamines” (Jacobus Pharmaceutical Co., Inc., priority 2001, dated 2004)
Values joined by “and” are separate entries in the source; they are usually repeats but may differ in a detail not shown here. Identical values can stand only once. Counter-ions that a name gives are not always drawn. Marks after values point to notes of the source that are not given here.

Columns and labels:
[1] = Toxicity: testis weight/body weight after 106 days of drug treated feed; details: for Mean values for testes: Left, % body wt / Mean values for testes: Right, % body wt.: male CD-1 mice, 8-mice groups, drug treated feed 106 days (300 ppm first 79 days, 600 ppm days 80-106); for Mean values for testes: Left, % body wt: control 0.30; for Mean values for testes: Right, % body wt.: control 0.31; for Testis damage / observable pathology: organs examined for pathology after 106 days of drug treated feed; for Decrease in testis weight/body weight: after 106 days of drug treated feed
Source text: Male CD-1 mice were fed drug treated feed for 106 days. For the first 79 days the drug level was 300 ppm and then 600 ppm for days 80-106. The animals were then sacrificed and the organs were both weighed and examined for pathology.

[2] = tested on: drug-resistant clones of P. falciparum; details: cited from earlier work; for In vitro activity relative to comparator: drug-resistant clones of P. falciparum
P. berghei = details: administered orally to mice infected with P. berghei; cited from earlier work
[3] = in vivo
Plasmodium berghei = experiment: Comparison of antimalarial activity of analogs of PS-15 in infected mice (Table III); format: in vivo; details: orally bid on days 3, 4, 5 in HEC Tween, infection control 08.0
Source text: Mice were infected with Plasmodium berghei on day 0 and the drugs were mixed in HEC Tween and given orally bid on days 3, 4, and 5 post infection. Blood films were taken on day 6 and twice weekly thereafter until day 30.

[4] = tested on: Plasmodium berghei (KBG-173 strain); experiment: In vivo antimalarial activity, modified Thompson Test (Table II); design: species or system Charles River CD-1 mice; details: bid on days 3, 4, 5; for Average days Survival: 31 day experiment; for 6 day Parasetemia: % of red blood cells infected
Description: In vivo^1 antimalarial activity was tested in male or female Charles River CD-1 mice that were 4-5 weeks old and weighed 20-25 g. They were housed in groups of 3 or 4 in standard plastic cages with wire tops, bed-o-cob® bedding, 12 hr/day of light, and maintained at 75° F. They were fed a standard Ralston Purina mouse chow and the cages and water bottles were changed twice a week. Test compounds were ground in a mortar and pestle and diluted with enough vehicle to give a volume of 10 mL/kg of mouse weight. The oral doses were prepared in 0.5% hydroxyethylcellulose-0.1% Tween-80. The amount of drug was calculated on the free base weight. The mice were infected intraperitoneally on day 0 with 5×10^4 erythrocytes parasitized with Plasmodium berghei (KBG-173 strain) from a donor mouse having a parasitemia between 5-10%. On days 3, 4, 5 the test compounds were administered bid, spaced 6 h apart, to mice. Smears were made from tail blood on day +6 and twice a week thereafter. The smears were stained with Geimsa and examined microscopically. Parasitemias are reported as the % of the red blood cells that are infected. On day 6 the (suppression of) parasitemias of treated animals may be compared to the parasitemias of infected non-treated controls, but these infected non-treated controls die on days 7-12. Activity was also measured by survival. Full activity is defined as all animals living at day 31. Partial activity is defined as days of increased survival versus the infected non-treated controls.
^1This in vivo model is a modification of the Thompson Test. For further description see Ager, A. L., Jr. Rodent Malaria Models. In Handbook of Experimental Pharmacology: Antimalarial Drugs. I. 68/1; Peters, W., Richards, W. H. G., Eds.: Springer-Verlag: Berlin, 1984, pp. 231-33.

[5] = cited from earlier work
[6] = tested on: multidrug-resistant P. falciparum; details: administered orally to Aotus monkeys; cited from earlier work

| Structure (SMILES) | Mean values for testes: Left, % body wt [1] | Mean values for testes: Right, % body wt. [1] | In vitro activity relative to comparator [2] | AVG. DAY OF DEATH (Plasmodium berghei; 16 MK/KG/DAY) | AVG. DAY OF DEATH (Plasmodium berghei; 32 MK/KG/DAY) | AVG. DAY OF DEATH (Plasmodium berghei; 64 MK/KG/DAY) | 6 day Parasetemia ([4]; 64 mg/kg oral) | Testis damage / observable pathology [1] | Average days Survival ([4]; 16 mg/kg oral) | 6 day Parasetemia ([4]; 16 mg/kg oral) | Average days Survival ([4]; 32 mg/kg oral) | 6 day Parasetemia ([4]; 32 mg/kg oral) | Average days Survival ([4]; 64 mg/kg oral) | Decrease in testis weight/body weight [1] | further results |
| --- | --- | --- | --- | --- | --- | --- | --- | --- | --- | --- | --- | --- | --- | --- | --- |
| CC(C)NC(=N)NC(=N)NOCCCOc1ccc(Cl)cc1Cl [2,4-Dichloro] | 0.19 % body wt | 0.20 % body wt. |  |  |  |  |  |  |  |  |  |  |  |  |  |
| CC(C)NC(=N)NC(=N)NOCCCOc1ccc(F)c(F)c1 [3,4-Difluoro] | 0.21 % body wt | 0.23 % body wt. |  |  |  |  |  |  |  |  |  |  |  |  |  |
| CC(C)NC(=N)NC(=N)NOCCCOc1cc(Cl)c(Cl)cc1Cl [PS-15, N-[3-(2,4,5-trichlorophenoxy)propyloxy]-N′-(1-methylethyl)imidodicarbonimidediamide hydrochloride, reference compound] | 0.21 % body wt | 0.22 % body wt. | more active than proguanil | 15.1 days | 15.7 days | 17.0 days | 0% | Testis damage was found |  |  |  |  |  |  | Activity against drug-resistant Plasmodium falciparum ([2]; as described by Canfield et al. 1993): significant activity; Cross-resistance with other inhibitors of DHFR ([2]; versus pyrimethamine and cycloguanil): not cross-resistant; Activity relative to proguanil (P. berghei): more active; Toxicity relative to proguanil (P. berghei): less toxic than proguanil; Testicular toxicity [3]: caused testicular toxicity; Average days Survival ([4]; 16 mg/kg oral, hydrochloride): 14.1 days and 15.1 days and 14.6 days and 13.6 days; 6 day Parasetemia ([4]; 16 mg/kg oral, hydrochloride): 1.8% and 2.7% and 1.94% and 1.1%; Average days Survival ([4]; 32 mg/kg oral, hydrochloride): 15.9 days and 17.8 days and 12.8 days and 21.8 days; 6 day Parasetemia ([4]; 32 mg/kg oral, hydrochloride): 0% and 0.006% and 0.01%; Average days Survival ([4]; 64 mg/kg oral, hydrochloride): >24.7 days and >31* days; Metabolism in vivo [5]: metabolized in vivo to WR99210; Activity relative to proguanil or WR99210 [6]: more active than either proquanil or WR99210 |
| CC(C)NC(=N)NC(=N)NOCCCOc1ccc(Cl)c(Cl)c1 [PS-26, 1-[3-(3,4-dichlorophenoxy)propyloxy]-5-isopropylbiguanide(hemisuccinate)] | 0.29 % body wt | 0.32 % body wt. |  | 16.6 days | 15.5 days |  | 0% | minimal to no observable pathology | 15.7 days and 16.6 days and 16.0 days | 0% and 0.006% | >29.3 days and >31 days | 0% | >31* days | no decrease in testis weight/body weight |  |
| CC(C)NC(=N)NC(=N)NOCCCOc1ccc(Cl)cc1 [PS-33, 1-[3-(4-chlorophenoxy)propyloxy]-5-isopropylbiguanide(hemisuccinate)] | 0.27 % body wt | 0.36 % body wt. |  | 16.0 days | 19.5 days | 29.0 days | 0% | minimal to no observable pathology | 14.1 days and 15.1 days and 14.6 days and 13.6 days | 1.8% and 2.7% and 1.94% and 1.1% | 21.8 days and 15.9 days and 17.8 days and 12.8 days | 0.01% and 0% and 0.006% | >31* days and >24.7 days | no decrease in testis weight/body weight |  |
| CC1(C)N=C(N)N=C(N)N1OCCCOc1cc(Cl)c(Cl)cc1Cl [WR99210] |  |  | ten thousand times more active than the proquanil metabolite cycloguanil |  |  |  |  |  |  |  |  |  |  |  |  |
